From paper PMC5564600 (Oncotarget, 2017)

Tests used:
Assay in all cases: biochemical
Assay type in all cases: binding
panel of 442 kinases [1] = molecular target: T1, panel of 442 kinases (Homo sapiens, UniProt Q16513); conditions: kinase PKN2; for remaining activity at 1 µM: read-out: PKN2 (% of control at 1 µM)
T1 construct: purchased Ambit Biosciences (scanMAXX KINOMEscan)

panel of 442 kinases [2] = molecular target: T2, panel of 442 kinases (Homo sapiens, UniProt P15056, V600E); conditions: BRAF(V600E); for remaining activity at 1 µM: read-out: % of control at 1 µM
T2 construct: purchased Ambit Biosciences (scanMAXX KINOMEscan)
T2 sequence (P15056 whole entry V600E): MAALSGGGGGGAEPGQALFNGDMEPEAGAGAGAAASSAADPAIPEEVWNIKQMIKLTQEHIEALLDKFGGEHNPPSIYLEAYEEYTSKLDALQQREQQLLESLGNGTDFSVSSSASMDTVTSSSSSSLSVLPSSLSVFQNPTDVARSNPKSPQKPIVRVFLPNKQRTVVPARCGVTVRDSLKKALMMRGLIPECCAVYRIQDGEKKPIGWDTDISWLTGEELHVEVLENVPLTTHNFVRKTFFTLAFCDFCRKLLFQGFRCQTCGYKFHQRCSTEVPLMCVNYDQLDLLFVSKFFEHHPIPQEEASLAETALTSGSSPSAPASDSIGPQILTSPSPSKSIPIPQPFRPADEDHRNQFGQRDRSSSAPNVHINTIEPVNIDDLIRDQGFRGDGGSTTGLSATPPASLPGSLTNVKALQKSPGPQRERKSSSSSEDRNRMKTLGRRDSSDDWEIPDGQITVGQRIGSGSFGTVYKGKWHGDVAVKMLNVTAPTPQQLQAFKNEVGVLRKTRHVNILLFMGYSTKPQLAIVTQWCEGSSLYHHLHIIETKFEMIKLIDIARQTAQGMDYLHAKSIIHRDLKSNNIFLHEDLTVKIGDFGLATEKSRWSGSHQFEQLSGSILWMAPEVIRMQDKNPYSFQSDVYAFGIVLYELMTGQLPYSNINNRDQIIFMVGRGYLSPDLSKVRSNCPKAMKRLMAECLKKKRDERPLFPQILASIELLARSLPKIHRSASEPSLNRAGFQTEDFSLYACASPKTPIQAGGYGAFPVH

panel of 442 kinases [3] = molecular target: T3, panel of 442 kinases (Homo sapiens, UniProt Q13043); conditions: kinase MST1; for remaining activity at 1 µM: read-out: % of control at 1 µM
T3 construct: purchased Ambit Biosciences (scanMAXX KINOMEscan)
T3 sequence (Q13043 1-487): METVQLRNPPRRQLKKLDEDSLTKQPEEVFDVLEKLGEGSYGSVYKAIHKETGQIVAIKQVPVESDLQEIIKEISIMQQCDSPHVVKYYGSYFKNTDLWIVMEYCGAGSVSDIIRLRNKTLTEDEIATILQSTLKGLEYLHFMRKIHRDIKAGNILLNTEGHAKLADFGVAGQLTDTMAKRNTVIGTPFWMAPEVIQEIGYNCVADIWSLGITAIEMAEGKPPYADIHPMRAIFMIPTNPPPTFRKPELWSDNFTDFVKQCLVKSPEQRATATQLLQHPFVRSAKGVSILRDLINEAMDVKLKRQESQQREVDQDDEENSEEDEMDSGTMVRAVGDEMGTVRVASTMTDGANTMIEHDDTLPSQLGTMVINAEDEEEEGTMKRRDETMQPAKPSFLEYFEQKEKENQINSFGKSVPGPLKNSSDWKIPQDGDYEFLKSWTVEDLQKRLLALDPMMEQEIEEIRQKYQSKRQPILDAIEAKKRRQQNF

panel of 442 kinases [4] = molecular target: T4, panel of 442 kinases (Homo sapiens, UniProt P00533, L858R/T790M); conditions: EGFR(L858R,T790M); for remaining activity at 1 µM: read-out: % of control at 1 µM
T4 construct: purchased Ambit Biosciences (scanMAXX KINOMEscan)
T4 sequence (P00533 25-1210 T790M/L858R): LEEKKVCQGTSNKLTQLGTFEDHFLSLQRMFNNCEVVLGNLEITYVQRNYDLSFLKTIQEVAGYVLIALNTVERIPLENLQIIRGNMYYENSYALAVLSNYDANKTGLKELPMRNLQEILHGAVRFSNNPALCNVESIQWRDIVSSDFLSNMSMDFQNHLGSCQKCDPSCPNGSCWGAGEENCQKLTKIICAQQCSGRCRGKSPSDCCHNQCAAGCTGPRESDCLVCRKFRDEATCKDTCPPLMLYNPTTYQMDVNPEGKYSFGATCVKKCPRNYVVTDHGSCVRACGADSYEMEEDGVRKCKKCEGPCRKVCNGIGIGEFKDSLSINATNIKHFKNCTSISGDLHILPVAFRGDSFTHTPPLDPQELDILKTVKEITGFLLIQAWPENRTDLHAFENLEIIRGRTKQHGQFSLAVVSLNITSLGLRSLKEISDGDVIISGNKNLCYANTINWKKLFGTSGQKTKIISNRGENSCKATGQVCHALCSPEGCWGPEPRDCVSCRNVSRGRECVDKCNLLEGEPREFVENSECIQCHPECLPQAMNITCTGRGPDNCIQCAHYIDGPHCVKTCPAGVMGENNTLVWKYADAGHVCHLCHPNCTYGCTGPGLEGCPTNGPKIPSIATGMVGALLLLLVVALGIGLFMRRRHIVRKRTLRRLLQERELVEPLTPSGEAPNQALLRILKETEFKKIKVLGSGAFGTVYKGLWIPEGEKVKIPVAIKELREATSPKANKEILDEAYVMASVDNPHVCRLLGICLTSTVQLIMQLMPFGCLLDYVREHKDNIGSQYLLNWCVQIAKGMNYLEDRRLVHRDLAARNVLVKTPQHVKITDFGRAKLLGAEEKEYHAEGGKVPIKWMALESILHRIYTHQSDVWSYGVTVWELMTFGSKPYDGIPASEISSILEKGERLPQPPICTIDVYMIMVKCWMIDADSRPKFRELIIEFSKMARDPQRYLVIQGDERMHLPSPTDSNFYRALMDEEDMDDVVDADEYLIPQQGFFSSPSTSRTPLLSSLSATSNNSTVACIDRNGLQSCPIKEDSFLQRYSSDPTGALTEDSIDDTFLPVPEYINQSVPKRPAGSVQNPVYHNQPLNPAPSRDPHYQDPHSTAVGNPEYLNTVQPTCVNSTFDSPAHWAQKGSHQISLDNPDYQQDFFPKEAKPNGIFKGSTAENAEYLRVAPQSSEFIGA

panel of 442 kinases [5] = molecular target: T5, panel of 442 kinases (Homo sapiens, UniProt Q00537); conditions: kinase PCTK2; for remaining activity at 1 µM: read-out: % of control at 1 µM
T5 construct: purchased Ambit Biosciences (scanMAXX KINOMEscan)
T5 sequence (Q00537 whole entry): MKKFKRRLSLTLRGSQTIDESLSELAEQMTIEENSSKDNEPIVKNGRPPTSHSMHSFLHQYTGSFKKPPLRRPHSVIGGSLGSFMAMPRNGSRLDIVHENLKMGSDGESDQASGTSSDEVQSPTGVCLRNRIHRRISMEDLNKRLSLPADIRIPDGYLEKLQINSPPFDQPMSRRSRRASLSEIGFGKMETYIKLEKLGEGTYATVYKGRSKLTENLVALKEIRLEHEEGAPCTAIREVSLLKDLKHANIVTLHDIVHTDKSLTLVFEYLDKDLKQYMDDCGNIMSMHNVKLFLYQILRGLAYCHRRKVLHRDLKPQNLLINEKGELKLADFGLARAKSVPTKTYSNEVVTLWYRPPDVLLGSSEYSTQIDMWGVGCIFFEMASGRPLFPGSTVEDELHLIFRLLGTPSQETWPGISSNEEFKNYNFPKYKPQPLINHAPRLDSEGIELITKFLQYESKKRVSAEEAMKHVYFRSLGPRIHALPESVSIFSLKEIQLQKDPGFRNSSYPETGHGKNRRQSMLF

panel of 442 kinases [6] = molecular target: T6, panel of 442 kinases (Homo sapiens, UniProt Q14164); conditions: kinase IKK-epsilon; for remaining activity at 1 µM: read-out: % of control at 1 µM
T6 construct: purchased Ambit Biosciences (scanMAXX KINOMEscan)
T6 sequence (Q14164 1-716): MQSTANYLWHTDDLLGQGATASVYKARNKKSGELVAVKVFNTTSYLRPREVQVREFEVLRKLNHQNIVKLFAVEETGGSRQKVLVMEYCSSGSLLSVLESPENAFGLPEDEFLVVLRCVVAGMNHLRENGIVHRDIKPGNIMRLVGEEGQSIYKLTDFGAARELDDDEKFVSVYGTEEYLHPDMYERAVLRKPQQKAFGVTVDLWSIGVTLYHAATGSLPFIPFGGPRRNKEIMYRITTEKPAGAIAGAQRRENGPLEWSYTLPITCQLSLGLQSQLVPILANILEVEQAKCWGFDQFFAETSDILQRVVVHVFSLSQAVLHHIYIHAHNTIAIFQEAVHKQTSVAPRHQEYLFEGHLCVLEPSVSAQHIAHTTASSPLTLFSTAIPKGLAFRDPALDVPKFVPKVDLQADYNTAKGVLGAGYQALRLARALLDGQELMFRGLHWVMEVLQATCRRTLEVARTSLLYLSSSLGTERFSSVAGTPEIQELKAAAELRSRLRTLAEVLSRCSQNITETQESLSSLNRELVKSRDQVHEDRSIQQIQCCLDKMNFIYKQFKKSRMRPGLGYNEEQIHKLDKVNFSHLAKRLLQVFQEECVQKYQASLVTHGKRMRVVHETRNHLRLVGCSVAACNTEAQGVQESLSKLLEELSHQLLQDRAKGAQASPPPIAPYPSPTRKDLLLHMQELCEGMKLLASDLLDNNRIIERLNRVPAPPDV

panel of 442 kinases [7] = molecular target: T7, panel of 442 kinases (Homo sapiens, UniProt P54753); conditions: EPHB3; for remaining activity at 1 µM: read-out: % of control at 1 µM
T7 construct: purchased Ambit Biosciences (scanMAXX KINOMEscan)
T7 sequence (P54753 34-998): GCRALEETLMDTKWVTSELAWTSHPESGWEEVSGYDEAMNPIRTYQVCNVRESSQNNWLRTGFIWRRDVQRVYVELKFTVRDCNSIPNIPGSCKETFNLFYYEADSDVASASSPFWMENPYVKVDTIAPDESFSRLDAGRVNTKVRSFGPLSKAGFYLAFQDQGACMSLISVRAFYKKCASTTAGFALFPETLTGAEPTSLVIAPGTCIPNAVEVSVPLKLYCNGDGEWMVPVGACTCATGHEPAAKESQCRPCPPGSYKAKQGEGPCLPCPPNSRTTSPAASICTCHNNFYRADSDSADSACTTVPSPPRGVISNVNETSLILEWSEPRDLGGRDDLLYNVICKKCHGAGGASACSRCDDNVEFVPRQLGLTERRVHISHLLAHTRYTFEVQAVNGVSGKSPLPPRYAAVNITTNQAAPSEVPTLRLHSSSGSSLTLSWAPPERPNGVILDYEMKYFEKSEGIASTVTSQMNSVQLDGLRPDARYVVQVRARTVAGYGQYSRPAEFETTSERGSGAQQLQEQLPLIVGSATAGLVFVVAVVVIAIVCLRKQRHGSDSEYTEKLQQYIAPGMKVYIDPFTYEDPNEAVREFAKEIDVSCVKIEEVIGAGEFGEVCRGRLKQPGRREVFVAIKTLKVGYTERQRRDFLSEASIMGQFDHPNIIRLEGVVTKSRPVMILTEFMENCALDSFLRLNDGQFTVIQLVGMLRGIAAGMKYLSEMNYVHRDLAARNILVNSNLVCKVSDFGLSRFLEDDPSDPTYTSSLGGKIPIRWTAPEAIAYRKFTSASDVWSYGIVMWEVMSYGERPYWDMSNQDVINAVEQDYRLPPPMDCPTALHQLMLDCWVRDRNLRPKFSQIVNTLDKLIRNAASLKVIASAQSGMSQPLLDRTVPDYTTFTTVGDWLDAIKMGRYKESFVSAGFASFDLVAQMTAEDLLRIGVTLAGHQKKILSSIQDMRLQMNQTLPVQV

panel of 442 kinases [8] = molecular target: T8, panel of 442 kinases (Homo sapiens, UniProt Q00536); conditions: kinase PCTK1; for remaining activity at 1 µM: read-out: % of control at 1 µM
T8 construct: purchased Ambit Biosciences (scanMAXX KINOMEscan)
T8 sequence (Q00536 whole entry): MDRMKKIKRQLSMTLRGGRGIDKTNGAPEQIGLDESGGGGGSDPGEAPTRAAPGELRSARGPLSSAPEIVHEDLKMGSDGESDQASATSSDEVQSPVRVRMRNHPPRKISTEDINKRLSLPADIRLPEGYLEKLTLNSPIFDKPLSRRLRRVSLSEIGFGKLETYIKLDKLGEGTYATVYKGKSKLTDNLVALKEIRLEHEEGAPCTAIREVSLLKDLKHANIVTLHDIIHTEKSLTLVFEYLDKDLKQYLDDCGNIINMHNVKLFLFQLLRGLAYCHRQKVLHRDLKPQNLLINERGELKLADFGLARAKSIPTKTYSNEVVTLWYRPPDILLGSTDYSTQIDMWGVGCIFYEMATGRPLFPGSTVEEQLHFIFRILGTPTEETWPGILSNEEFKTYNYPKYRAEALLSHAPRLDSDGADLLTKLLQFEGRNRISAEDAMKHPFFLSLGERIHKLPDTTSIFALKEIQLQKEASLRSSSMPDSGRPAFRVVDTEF

panel of 442 kinases [9] = molecular target: T9, panel of 442 kinases (Homo sapiens, UniProt Q07002); conditions: kinase PCTK3; for remaining activity at 1 µM: read-out: % of control at 1 µM
T9 construct: purchased Ambit Biosciences (scanMAXX KINOMEscan)

panel of 442 kinases [10] = molecular target: T10, panel of 442 kinases (Homo sapiens, UniProt P21127); conditions: CDC2L1; for remaining activity at 1 µM: read-out: % of control at 1 µM
T10 construct: purchased Ambit Biosciences (scanMAXX KINOMEscan)
T10 sequence (P21127 whole entry): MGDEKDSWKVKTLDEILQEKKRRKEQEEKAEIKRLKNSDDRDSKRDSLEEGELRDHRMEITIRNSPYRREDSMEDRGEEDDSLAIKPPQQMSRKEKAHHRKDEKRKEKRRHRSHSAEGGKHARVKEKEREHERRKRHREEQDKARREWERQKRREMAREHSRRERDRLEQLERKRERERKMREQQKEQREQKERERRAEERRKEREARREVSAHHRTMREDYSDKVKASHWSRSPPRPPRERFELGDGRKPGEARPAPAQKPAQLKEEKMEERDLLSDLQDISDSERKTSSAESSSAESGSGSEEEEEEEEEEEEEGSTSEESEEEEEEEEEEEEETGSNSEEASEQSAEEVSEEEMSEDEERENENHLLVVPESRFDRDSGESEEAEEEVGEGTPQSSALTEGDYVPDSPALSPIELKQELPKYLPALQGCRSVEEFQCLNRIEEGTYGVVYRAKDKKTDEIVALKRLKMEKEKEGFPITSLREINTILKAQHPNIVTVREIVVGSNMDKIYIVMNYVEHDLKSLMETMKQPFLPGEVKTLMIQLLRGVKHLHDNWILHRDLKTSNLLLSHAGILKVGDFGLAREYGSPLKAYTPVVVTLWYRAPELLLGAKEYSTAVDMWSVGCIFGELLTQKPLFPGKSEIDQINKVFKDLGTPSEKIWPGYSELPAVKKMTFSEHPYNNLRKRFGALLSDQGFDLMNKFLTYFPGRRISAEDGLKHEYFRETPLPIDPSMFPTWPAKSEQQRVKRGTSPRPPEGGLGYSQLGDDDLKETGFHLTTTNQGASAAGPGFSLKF

[11] = 10 µM, read-out: % of control at 10 µM

T1 sequence (Q16513 whole entry): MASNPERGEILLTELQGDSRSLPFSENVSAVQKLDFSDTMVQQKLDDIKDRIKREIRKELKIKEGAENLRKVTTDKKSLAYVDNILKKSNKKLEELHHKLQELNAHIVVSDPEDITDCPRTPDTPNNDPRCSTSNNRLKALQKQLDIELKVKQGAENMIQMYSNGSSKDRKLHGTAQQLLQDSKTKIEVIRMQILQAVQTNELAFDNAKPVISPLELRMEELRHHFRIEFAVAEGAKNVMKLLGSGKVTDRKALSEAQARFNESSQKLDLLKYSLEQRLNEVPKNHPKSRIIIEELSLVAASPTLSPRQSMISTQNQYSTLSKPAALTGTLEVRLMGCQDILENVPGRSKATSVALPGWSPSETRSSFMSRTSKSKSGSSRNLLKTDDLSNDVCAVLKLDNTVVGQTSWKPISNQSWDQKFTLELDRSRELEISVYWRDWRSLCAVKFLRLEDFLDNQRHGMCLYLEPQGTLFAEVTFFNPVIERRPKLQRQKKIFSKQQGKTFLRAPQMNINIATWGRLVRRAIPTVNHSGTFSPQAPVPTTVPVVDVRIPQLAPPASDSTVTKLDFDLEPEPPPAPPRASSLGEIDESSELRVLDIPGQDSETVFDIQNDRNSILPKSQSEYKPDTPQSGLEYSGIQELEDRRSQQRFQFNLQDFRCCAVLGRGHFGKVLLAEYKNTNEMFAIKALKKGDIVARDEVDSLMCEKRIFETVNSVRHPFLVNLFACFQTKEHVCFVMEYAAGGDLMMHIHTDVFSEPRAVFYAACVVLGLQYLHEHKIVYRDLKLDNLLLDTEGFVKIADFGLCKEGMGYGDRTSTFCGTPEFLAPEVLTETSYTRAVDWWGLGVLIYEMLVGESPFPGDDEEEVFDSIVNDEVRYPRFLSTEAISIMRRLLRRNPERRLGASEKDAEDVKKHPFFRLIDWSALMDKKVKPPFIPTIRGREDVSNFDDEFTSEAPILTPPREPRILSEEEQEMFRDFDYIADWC

Row | SMILES | remaining activity at 1 µM (panel of 442 kinases [1]) | remaining activity at 10 µM (panel of 442 kinases [1]; 10 µM, read-out: PKN2 (% of control at 10 µM)) | remaining activity at 1 µM (panel of 442 kinases [2]) | remaining activity at 10 µM (panel of 442 kinases [2]; [11]) | remaining activity at 1 µM (panel of 442 kinases [3]) | remaining activity at 10 µM (panel of 442 kinases [3]; [11]) | remaining activity at 1 µM (panel of 442 kinases [4]) | remaining activity at 10 µM (panel of 442 kinases [4]; [11]) | remaining activity at 1 µM (panel of 442 kinases [5]) | remaining activity at 10 µM (panel of 442 kinases [5]; [11]) | remaining activity at 1 µM (panel of 442 kinases [6]) | remaining activity at 10 µM (panel of 442 kinases [6]; [11]) | remaining activity at 1 µM (panel of 442 kinases [7]) | remaining activity at 10 µM (panel of 442 kinases [7]; [11]) | remaining activity at 1 µM (panel of 442 kinases [8]) | remaining activity at 10 µM (panel of 442 kinases [8]; [11]) | remaining activity at 1 µM (panel of 442 kinases [9]) | remaining activity at 10 µM (panel of 442 kinases [9]; [11]) | remaining activity at 1 µM (panel of 442 kinases [10]) | remaining activity at 10 µM (panel of 442 kinases [10]; [11])
1 | Nc1cc(C(F)(F)F)c(-c2cc(N3CCOCC3)nc(N3CCOCC3)n2)cn1 [Buparlisib] | 83% | 100% | 74% | 44% | 95% | 100% | 100% | 100% | 87% | 69% | 78% | 100% | 91% | 100% | 79% | 100% | 100% | 87% | 85% | 92%
2 | Cn1c(=O)n(-c2ccc(C(C)(C)C#N)cc2)c2c3cc(-c4cnc5ccccc5c4)ccc3ncc21 [Dactolisib, 2-methyl-2-[4-(3-methyl-2-oxo-8-quinolin-3-yl-2,3-dihydroimidazo[4,5-c]quinolin-1-yl)-phenyl] propionitrile] | 92% |  | 82% |  | 66% |  | 100% |  | 100% |  | 100% |  | 70% |  | 100% |  | 94% |  | 100% | 
3 | COc1ncc(-c2ccc3nccc(-c4ccnnc4)c3c2)cc1NS(=O)(=O)c1ccc(F)cc1F [Omipalisib] | 100% |  |  |  | 100% |  | 100% |  | 100% |  | 100% |  | 100% |  | 96% |  | 100% |  | 96% | 
4 | FC(F)c1nc2ccccc2n1-c1nc(N2CCOCC2)nc(N2CCOCC2)n1 [ZSTK474, 2-(difluoromethyl)-1-[4,6-di(4-morpholinyl)-1,3,5-triazin-2-yl]-1H-benzimidazole] | 100% |  | 56% |  | 53% |  | 100% |  | 100% |  | 100% |  | 56% |  | 95% |  | 100% |  | 88% | 
